Reference: patent publication US8415469B2, “Compounds and methods for kinase modulation, and indications therefor” (Plexxikon Inc., priority 2005, dated 2013)

Assays:
Format in all cases: biochemical
[1] = target: T1, Ret (Homo sapiens, UniProt P07949); test: AlphaScreen kinase assay, Ret; conditions: read-out: IC50, activity toward kinase Ret
T1 construct: P1378.pET-SF BI-PTP RET H661-R1012 HIS; made in house
T1 sequence (P07949 with tags, fused parts or gaps): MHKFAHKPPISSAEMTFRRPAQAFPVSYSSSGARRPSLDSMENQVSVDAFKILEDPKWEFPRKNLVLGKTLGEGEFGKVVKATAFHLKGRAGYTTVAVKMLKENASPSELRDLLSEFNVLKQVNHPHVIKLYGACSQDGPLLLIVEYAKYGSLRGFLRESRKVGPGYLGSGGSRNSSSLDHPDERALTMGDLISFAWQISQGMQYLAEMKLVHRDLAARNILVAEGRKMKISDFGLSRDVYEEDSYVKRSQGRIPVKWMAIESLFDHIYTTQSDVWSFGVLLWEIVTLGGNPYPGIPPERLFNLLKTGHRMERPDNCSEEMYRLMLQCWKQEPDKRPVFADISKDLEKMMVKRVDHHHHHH

[2] = target: Gsk3β (Homo sapiens, UniProt P49841); test: AlphaScreen kinase assay, Gsk3β; conditions: read-out: IC50, activity toward kinase Gsk3β
Chain of Gsk3β (P49841 whole entry): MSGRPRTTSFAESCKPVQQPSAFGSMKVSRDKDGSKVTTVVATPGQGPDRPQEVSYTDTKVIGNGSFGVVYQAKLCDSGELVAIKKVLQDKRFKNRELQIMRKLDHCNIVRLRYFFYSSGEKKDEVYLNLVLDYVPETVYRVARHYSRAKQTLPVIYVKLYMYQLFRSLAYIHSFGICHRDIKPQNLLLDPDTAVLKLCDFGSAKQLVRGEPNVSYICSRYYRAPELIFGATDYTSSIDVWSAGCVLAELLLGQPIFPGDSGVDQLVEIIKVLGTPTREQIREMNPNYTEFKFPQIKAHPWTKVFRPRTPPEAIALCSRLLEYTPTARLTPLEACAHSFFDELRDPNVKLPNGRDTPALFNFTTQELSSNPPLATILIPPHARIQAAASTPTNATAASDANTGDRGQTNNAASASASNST
Source text: AlphaScreen assay was used to screen additional kinases. The assay is similarly dependent on the phosphorylation of a peptide substrate. In this assay, an antibody that recognizes phosphorylated substrate is bound to an acceptor bead. The peptide substrate is attached to biotin, which binds to a donor head that contains streptavidin. Thus phosphorylated substrate is bound by antibody and streptavidin, bringing the donor and acceptor heads into close proximity when kinase is not inhibited. The donor produces singlet oxygen which results in emission from the acceptor when they are in close proximity. Conversely, when kinase is inhibited, the donor and acceptor beads are not associated and the emission from the acceptor is reduced.
AlphaScreen assays were done using compounds dissolved in DMSO to a concentration of 20 mM. The compounds were diluted accordingly to the desired final concentrations in each sample well, using 1:3 serial dilution for a total of 8 concentration points.

[3] = target: T2, Met (Homo sapiens, UniProt P08581); test: AlphaScreen kinase assay, Met; conditions: read-out: IC50, activity toward kinase Met
T2 construct: P1818.pETN6 BI-PTP MET G1056-G1364-X WT; His6 (N); made in house; host or cells: E. coli (PTP1B co-expressed)
T2 sequence (P08581 with tags, fused parts or gaps): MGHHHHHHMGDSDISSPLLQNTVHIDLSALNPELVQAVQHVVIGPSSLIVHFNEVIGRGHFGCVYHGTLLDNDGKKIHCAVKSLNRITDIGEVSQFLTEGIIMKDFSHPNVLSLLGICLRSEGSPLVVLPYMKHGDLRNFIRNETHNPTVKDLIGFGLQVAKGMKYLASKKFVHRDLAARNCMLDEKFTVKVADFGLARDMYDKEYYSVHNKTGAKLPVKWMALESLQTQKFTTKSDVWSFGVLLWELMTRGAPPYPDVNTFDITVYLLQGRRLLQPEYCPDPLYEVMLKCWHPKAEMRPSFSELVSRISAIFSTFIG
Method in brief: (§1)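 Compounds in DMSO (20 mM stock) were diluted 1:3 across 8 points. Each kinase phosphorylated a biotin-labelled peptide. Signal generated when donor and acceptor beads came close via antibody binding of phosphorylated substrate.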

[4] = target: T3, MAP2K1 (Homo sapiens, UniProt Q02750); test: Z'-Lyte FRET kinase assay (Invitrogen), MAP2K1; conditions: read-out: IC50, activity toward kinase MAP2K1
T3 construct: purchased Invitrogen (assay run by Invitrogen)
T3 sequence (Q02750 whole entry): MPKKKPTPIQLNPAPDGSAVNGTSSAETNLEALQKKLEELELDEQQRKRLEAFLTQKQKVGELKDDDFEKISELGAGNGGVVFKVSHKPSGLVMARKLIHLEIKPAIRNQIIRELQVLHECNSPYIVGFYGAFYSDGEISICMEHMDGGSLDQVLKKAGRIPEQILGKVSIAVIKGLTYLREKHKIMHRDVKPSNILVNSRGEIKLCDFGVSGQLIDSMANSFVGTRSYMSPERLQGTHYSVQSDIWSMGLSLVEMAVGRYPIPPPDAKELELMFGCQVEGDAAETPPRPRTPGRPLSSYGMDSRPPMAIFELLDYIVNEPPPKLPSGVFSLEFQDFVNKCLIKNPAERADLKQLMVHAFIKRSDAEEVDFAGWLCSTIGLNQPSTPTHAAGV
Source text: For example, direct radiometric, indirect FRET or AlphaScreen assays may be used to assess the level of phosphorylation of a substrate in the presence of test compounds in order to determine the inhibitory affect of the compound on the kinase. […] For these assays, compounds of the invention were screened by Invitrogen using Z′-Lyte™ kinase assay.
Briefly, the Invitrogen kinase assay involves use of a specific peptide substrate optimized for each kinase, containing a fluorophore at each end that make up the FRET pair. The peptide sensitivity to proteolytic cleavage depends on phosphorylation of the peptide. Non-phosphorylated peptide is cleaved by a protease while peptide phosphorylated by the kinase is not cleaved. Cleavage of the peptide disrupts the FRET between the donor (coumarin) and acceptor (fluorescein) fluorophores, resulting in an increase in the ratio of donor emission to acceptor emission. The emission ratio of coumarin to fluorescein is used to assess the reaction progress. […] Thus, the assay involves a kinase reaction in the presence of varying concentrations of a given compound, a development reaction with site specific protease, and detection of the fluorescent emission ratio of coumarin and fluorscein. […] Reaction conditions for each kinase are determined to provide optimal reaction times, incubation temperature, kinase and ATP concentrations. Test samples are made up in 1× kinase buffer (50 mM HEPES pH 7.5, 50 mM MgCl2, 5 mM EGTA, 0.05% BRIJ-35) and compound at desired concentration prepared in DMSO such that the final DMSO is 1%. […] All kinase except for MAP2K1 were at 10 μM ATP in the kinase reaction, while MAP2K1 was at 100 μM. Samples are mixed and the kinase reaction is incubated 1 hour at room temperature, after which 5 μl of development solution is added and mixed. After incubation for another 1 hour at room temperature, 5 μl of stop reagent is added to each sample and mixed. The fluorescence signals are measured to determine the emission ratio.

[5] = target: T4, FGFR1 (Homo sapiens, UniProt P11362, C488A/C584S); test: AlphaScreen kinase assay, FGFR1; conditions: read-out: IC50, activity toward kinase FGFR
T4 construct: P1351.pET N6 BI-PTP FGFR A458-E765-X C488A, C584S; made in house; host or cells: E. coli (PTP1B co-expressed)
T4 sequence (P11362 458-765 C488A/C584S): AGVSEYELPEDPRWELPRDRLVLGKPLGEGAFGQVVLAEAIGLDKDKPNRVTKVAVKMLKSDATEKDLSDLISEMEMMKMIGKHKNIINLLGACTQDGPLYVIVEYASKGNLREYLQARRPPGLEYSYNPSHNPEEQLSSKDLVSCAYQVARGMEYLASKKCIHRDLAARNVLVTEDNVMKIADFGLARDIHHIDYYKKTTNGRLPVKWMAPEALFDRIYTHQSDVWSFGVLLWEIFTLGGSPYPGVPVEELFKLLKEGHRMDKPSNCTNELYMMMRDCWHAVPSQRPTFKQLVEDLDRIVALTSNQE

[6] = target: T5, Kdr (Homo sapiens, UniProt P35968); test: Z'-Lyte FRET kinase assay (Invitrogen), Kdr; conditions: read-out: IC50, activity toward kinase Kdr
T5 construct: purchased Invitrogen (assay run by Invitrogen)
T5 sequence (P35968 20-1356): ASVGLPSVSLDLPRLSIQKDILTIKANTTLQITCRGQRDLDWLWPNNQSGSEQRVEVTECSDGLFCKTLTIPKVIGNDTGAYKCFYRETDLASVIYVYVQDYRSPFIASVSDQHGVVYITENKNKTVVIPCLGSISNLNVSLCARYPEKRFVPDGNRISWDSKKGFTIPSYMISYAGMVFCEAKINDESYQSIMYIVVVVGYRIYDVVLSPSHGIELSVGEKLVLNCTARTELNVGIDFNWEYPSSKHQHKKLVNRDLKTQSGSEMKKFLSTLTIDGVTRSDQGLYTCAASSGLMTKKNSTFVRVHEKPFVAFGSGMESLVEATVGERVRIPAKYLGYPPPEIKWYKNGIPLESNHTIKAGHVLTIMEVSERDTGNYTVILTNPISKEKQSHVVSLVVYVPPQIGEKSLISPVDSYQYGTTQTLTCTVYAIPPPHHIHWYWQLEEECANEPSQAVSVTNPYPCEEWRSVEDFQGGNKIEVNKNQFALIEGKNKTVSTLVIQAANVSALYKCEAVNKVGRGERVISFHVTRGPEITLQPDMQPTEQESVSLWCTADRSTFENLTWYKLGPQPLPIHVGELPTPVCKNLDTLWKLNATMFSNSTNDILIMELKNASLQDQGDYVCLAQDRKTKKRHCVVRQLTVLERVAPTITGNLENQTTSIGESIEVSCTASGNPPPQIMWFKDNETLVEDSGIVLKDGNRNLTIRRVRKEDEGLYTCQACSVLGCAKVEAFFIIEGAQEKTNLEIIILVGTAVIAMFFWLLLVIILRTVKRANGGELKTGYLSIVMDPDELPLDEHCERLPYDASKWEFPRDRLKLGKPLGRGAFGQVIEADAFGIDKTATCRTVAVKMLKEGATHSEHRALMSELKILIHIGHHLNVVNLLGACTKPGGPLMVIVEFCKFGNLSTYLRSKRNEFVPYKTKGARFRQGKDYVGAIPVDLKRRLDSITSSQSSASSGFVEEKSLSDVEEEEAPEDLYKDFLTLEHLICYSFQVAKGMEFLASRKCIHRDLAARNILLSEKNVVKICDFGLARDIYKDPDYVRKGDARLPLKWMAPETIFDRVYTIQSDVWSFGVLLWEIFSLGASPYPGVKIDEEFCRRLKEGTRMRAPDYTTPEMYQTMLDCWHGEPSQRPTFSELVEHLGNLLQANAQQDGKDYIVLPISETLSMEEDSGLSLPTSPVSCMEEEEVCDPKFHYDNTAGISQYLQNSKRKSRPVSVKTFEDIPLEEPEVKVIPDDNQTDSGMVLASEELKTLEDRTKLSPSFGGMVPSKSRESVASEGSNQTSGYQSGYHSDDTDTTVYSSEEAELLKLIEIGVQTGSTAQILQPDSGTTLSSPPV

[7] = target: T6, Flt1 (Homo sapiens, UniProt P17948); test: AlphaScreen kinase assay, Flt1; conditions: read-out: IC50, activity toward kinase Flt1
T6 construct: P1826.pETN6 BI-PTP FLT1 M799-D1165-X WT; His6 (N); made in house; host or cells: E. coli (PTP1B co-expressed)
T6 sequence (P17948 with tags, fused parts or gaps): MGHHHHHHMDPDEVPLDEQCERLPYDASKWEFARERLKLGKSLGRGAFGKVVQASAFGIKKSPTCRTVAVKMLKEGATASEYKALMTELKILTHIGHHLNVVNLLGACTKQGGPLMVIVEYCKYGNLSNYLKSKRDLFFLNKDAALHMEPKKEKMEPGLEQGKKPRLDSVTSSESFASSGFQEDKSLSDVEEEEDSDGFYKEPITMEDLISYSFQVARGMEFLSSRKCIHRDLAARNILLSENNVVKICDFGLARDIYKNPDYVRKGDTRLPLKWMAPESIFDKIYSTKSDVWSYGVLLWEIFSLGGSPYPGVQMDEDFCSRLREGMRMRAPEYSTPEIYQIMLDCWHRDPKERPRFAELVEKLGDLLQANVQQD
Method: (§2) AlphaScreen assays were done using compounds dissolved in DMSO to a concentration of 20 mM. The compounds were diluted accordingly to the desired final concentrations in each sample well, using 1:3 serial dilution for a total of 8 concentration points. Plates were prepared such that each kinase reaction is 20 μl in 1× kinase buffer, 5% DMSO and 10 μM ATP. After incubation of the kinase reaction for 1 hour at room temperature, 5 μl of donor beads in stop buffer (50 mM EDTA in 1× kinase buffer) was added, the sample was mixed and incubated for 20 minutes at room temperature before adding 5 μl of acceptor beads in stop buffer. The samples were incubated for 60 minutes at room temperature and the signal per well was read on AlphaQuest reader.

[8] = target: T7, c-Raf-1 (Homo sapiens, UniProt P04049); test: AlphaScreen kinase assay, c-Raf-1; conditions: read-out: IC50, activity toward kinase c-Raf-1
T7 construct: purchased Upstate Biotechnology
T7 sequence (P04049 whole entry): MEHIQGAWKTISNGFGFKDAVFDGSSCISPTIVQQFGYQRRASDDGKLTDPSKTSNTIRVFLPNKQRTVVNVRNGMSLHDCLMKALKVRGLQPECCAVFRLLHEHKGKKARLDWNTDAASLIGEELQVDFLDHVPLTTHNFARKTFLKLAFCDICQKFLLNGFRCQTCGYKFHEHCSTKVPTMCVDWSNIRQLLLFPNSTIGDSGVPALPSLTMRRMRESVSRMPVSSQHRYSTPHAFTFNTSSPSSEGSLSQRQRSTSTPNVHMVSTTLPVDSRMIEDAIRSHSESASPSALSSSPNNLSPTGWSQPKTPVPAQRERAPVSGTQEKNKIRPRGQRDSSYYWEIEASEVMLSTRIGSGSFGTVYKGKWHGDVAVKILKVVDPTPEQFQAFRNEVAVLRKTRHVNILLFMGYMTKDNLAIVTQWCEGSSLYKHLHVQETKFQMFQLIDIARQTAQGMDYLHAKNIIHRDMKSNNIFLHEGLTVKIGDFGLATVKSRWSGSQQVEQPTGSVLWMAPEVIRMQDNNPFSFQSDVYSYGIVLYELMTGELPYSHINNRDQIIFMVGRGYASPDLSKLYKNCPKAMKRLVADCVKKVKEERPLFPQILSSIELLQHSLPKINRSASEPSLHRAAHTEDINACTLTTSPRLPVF

[9] = target: T8, Jnk1 (Homo sapiens, UniProt P45983); test: AlphaScreen kinase assay, Jnk1; conditions: read-out: IC50, activity toward kinase Jnk1
T8 construct: purchased Upstate Biotechnology

[10] = target: T9, Jnk3 (Homo sapiens, UniProt P53779); test: AlphaScreen kinase assay, Jnk3; conditions: read-out: IC50, activity toward kinase Jnk3
T9 construct: purchased Upstate Biotechnology

[11] = target: T10, B-Raf V600E (Homo sapiens, UniProt P15056, V600E); test: AlphaScreen kinase assay, B-Raf V600E; conditions: read-out: IC50, activity toward kinase B-Raf V600E
T10 construct: P4254. pFastBacBD-CDC37 BRAF D437-K722-X, V600E; His6 with pFastBac HT leader (TEV site) (N); made in house; host or cells: Sf9 (baculovirus; chaperone CDC37 co-expressed)
T10 sequence (P15056 with tags, fused parts or gaps V600E): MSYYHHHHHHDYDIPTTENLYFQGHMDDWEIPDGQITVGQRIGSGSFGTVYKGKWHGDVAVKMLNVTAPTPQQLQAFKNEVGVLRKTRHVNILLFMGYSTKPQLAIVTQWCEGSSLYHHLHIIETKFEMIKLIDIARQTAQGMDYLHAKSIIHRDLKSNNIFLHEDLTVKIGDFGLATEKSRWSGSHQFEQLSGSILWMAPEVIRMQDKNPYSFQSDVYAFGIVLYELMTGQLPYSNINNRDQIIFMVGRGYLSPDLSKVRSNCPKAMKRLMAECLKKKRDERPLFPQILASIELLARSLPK

[12] = target: T11, Fms (Homo sapiens, UniProt P07333); test: AlphaScreen kinase assay, Fms; conditions: read-out: IC50, activity toward kinase Fms
T11 construct: purchased Upstate Biotechnology

[13] = target: T12, Fak (Homo sapiens, UniProt Q05397); test: AlphaScreen kinase assay, Fak; conditions: read-out: IC50, activity toward kinase Fak
T12 construct: P1358.pFastBacHtb FAK S411-Q686-X; His6 with pFastBacHTb leader (TEV site) (N); made in house; host or cells: Sf9 (baculovirus)
Method: as §2

[14] = target: T13, Pyk2 (Homo sapiens, UniProt Q14289); test: AlphaScreen kinase assay, Pyk2; conditions: read-out: IC50, activity toward kinase Pyk2
T13 construct: purchased Upstate Biotechnology

[15] = target: T14, Kit (Homo sapiens, UniProt P10721); test: AlphaScreen kinase assay, Kit; conditions: read-out: IC50, activity toward kinase Kit
T14 construct: P1332.N6 BI PTP KIT M552-K948-X COD; His6 (N); made in house; host or cells: E. coli (PTP1B co-expressed)
T14 sequence (P10721 with tags, fused parts or gaps): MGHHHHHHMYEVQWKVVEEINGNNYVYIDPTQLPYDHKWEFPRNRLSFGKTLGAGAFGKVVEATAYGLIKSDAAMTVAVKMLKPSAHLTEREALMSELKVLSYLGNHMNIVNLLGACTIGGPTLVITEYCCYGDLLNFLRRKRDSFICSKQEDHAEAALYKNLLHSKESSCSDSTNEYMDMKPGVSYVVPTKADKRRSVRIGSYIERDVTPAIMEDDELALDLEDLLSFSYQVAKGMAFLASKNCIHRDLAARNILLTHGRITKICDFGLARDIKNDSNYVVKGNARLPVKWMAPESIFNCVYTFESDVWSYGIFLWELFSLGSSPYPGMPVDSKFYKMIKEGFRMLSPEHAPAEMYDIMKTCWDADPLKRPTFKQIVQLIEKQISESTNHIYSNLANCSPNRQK

[16] = target: T15, Btk (Homo sapiens, UniProt Q06187); test: Z'-Lyte FRET kinase assay (Invitrogen), Btk; conditions: read-out: IC50, activity toward kinase Btk
T15 construct: purchased Invitrogen (assay run by Invitrogen)

[17] = target: T16, Stk6 (Homo sapiens, UniProt O14965); test: Z'-Lyte FRET kinase assay (Invitrogen), Stk6; conditions: read-out: IC50, activity toward kinase Stk6
T16 construct: purchased Invitrogen (Carlsbad, Calif.), screening service
T16 sequence (O14965 1-403): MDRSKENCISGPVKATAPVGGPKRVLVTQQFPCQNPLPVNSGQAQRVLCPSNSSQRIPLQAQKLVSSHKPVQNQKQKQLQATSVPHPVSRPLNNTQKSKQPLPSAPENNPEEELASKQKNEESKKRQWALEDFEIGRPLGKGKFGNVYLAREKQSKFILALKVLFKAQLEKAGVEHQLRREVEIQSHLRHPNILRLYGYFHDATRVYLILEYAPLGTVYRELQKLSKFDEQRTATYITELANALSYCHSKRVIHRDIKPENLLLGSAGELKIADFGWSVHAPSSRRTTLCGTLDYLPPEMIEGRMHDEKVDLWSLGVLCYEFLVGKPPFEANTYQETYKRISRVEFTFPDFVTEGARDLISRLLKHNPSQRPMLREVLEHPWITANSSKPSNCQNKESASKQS

[18] = target: T17, B-Raf (Homo sapiens, UniProt P15056); test: AlphaScreen kinase assay, B-Raf; conditions: read-out: IC50, activity toward kinase B-Raf
T17 construct: purchased Upstate Biotechnology
T17 sequence (P15056 whole entry): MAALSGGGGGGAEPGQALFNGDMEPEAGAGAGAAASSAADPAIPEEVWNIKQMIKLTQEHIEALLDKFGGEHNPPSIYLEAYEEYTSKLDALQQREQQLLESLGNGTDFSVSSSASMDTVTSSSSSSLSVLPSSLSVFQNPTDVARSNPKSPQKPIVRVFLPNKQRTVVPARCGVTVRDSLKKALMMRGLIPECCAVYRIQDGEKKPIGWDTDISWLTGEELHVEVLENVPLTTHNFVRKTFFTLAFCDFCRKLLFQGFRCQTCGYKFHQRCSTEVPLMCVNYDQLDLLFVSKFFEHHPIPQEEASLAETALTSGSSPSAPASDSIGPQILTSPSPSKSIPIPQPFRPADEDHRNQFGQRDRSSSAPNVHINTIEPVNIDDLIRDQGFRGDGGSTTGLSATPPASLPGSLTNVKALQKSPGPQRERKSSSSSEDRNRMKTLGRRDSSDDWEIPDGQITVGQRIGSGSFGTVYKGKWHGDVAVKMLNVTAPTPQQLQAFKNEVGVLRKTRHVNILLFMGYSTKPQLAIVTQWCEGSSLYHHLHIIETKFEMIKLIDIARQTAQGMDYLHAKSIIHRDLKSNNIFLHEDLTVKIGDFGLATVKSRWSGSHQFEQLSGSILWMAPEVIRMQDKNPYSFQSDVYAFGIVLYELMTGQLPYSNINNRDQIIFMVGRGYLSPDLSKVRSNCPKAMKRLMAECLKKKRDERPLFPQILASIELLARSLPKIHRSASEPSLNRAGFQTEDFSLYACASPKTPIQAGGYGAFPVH

[19] = target: MAP4K4 (Homo sapiens, UniProt O95819); test: AlphaScreen kinase assay, MAP4K4; conditions: read-out: IC50, activity toward kinase MAP4K4
[20] = target: T18, Abl (Homo sapiens, UniProt P00519); test: AlphaScreen kinase assay, Abl; conditions: read-out: activity toward kinase Abl, IC50
T18 construct: P1121. pET-SPEC BI-PTP Abl G227-V515-X; His6 (N); made in house; host or cells: E. coli (PTP1B co-expressed)
T18 sequence (P00519 with tags, fused parts or gaps): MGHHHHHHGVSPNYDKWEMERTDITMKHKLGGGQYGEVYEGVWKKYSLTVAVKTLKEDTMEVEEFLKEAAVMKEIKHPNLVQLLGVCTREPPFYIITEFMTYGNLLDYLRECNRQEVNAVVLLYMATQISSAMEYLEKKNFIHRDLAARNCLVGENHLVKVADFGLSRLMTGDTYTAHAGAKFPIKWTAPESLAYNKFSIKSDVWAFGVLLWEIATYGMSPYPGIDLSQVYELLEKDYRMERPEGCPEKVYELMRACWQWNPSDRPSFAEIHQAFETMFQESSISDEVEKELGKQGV
Method in brief: as §1

[21] = target: T19, Flt4 (Homo sapiens, UniProt P35916); test: AlphaScreen kinase assay, Flt4; conditions: read-out: IC50, activity toward kinase Flt4
T19 construct: purchased ProQinase GmbH (Freiburg, Germany)
Method in brief: as §1

[22] = target: T20, Src (Homo sapiens, UniProt P12931); test: AlphaScreen kinase assay, Src; conditions: read-out: IC50, activity toward kinase Src
T20 construct: P1144. pET-N6 BI-PTP SRC V86-L536-X; made in house

Measured: IC50

Cc1cc(C)cc(-c2ccnc3[nH]ccc23)c1 [Compound P-0159]
≤ 10 µM: [1] | [2]

COc1cccc(C(=O)c2c[nH]c3nccc(Cl)c23)c1 [Compound P-0149]
≤ 10 µM: [3] | [4] | [5] | [6]

CC(=O)Nc1ccc(F)c(C(=O)c2c[nH]c3ncc(-c4cccnc4)cc23)c1F [Compound P-1002, N-[2,4-Difluoro-3-(5-pyridin-3-yl-1H-pyrrolo[2,3-b]pyridine-3-carbonyl)-phenyl]-acetamide]
≤ 10 µM: [7] | [8] | [5] | [9] | [10] | [11] | [12] | [13] | [2] | [14] | [15]

Cc1ccccc1C(=O)c1c[nH]c2nccc(-c3cccc(/C=C/C(=O)O)c3)c12 [Compound P-0094]
≤ 10 µM: [16] | [1] | [2] | [17]

O=C(c1c(F)ccc(NS(=O)(=O)c2ccccc2)c1F)c1c[nH]c2ncc(F)cc12 [Compound P-0902, N-[2,4-Difluoro-3-(5-fluoro-1H-pyrrolo[2,3-b]pyridine-3-carbonyl)-phenyl]-benzenesulfonamide]
≤ 10 µM: [8] | [5] | [18] | [19] | [11] | [2]

COc1cccc(C(=O)c2c[nH]c3ncc(-c4cccnc4)cc23)c1 [Compound P-0167]
≤ 10 µM: [20] | [4] | [5] | [21] | [6] | [1] | [15]

CC(C)(C)OC(=O)Nc1ccc(F)c(C(=O)c2c[nH]c3ncc(Br)cc23)c1F [Compound P-1142]
≤ 10 µM: [5] | [2]

Nc1cccc(-c2c(CN3CCC(C(=O)O)CC3)[nH]c3ncccc23)c1 [Compound P-0462]
≤ 10 µM: [2]

Cc1c(NS(C)(=O)=O)cccc1C(=O)c1c[nH]c2ncc(Br)cc12 [Compound P-0180, N-[3-(5-Bromo-1H-pyrrolo[2,3-b]pyridine-3-carbonyl)-2-methyl-phenyl]-methanesulfonamide]
≤ 10 µM: [7] | [8] | [5] | [18] | [6] | [11] | [12] | [2] | [15]

O=[N+]([O-])c1cccc(Sc2c[nH]c3nccc(-c4cccc(C(F)(F)F)c4)c23)c1 [Compound P-0969]
≤ 10 µM: [2]

CS(=O)(=O)Nc1cccc(-c2ccnc3[nH]cc(C(=O)c4ccccc4F)c23)c1 [Compound P-0236]
≤ 10 µM: [1] | [2]

Cc1cc(C)cc(-c2ccnc3[nH]cc(Sc4ccccc4)c23)c1 [Compound P-0252]
≤ 10 µM: [11] | [2]

Cc1ccc(-c2c(C)[nH]c3ncccc23)s1 [Compound P-0207]
≤ 10 µM: [2] | [17]

Cc1cc(C)cc(-c2ccnc3[nH]cc(Sc4ccccn4)c23)c1 [Compound P-0273]
≤ 10 µM: [2]

NC(=O)c1cccc(-c2ccnc3[nH]cc(C(=O)c4ccccc4F)c23)c1 [Compound P-1181]
≤ 10 µM: [7] | [22] | [5] | [1] | [11] | [2] | [15]
